A short description of this data set: LogD7.4 shake-flask measurement (n-octanol/PBS). Conditions: n-octanol/PBS pH 7.4, shake-flask. Format: physicochemical. As to the method: Aliquots of [^197m/gHg][Hg(Tetrathiol)]^2− (prepared as described above) (10 μL) were added to a biphasic mixture of n-octanol (700 μL) and phosphate buffered saline (PBS, 700 μL, pH 7.4). The mixture was vortexed for 2 min at ambient temperature and then separated via centrifugation (10 min, 3000 rpm). Aliquots of n-octanol (100 μL) and PBS (100 μL) were collected, and the activity in each portion was determined via gamma spectroscopy. LogD7.4 is defined as log10[(activity in n-octanol phase)/(activity in buffer phase)].

Each structure is given as a SMILES string.

In turn, `O=C(CC[S-])OCC(COC(=O)CC[S-])(COC(=O)CC[S-])COC(=O)CC[S-].[Hg+2]` [[^197m/gHg]Hg-Tetrathiol] gave a logD7.4 of 0.35 ± 0.1.

The values above are taken from paper PMC12521730, “Quantitative dual-isotope preclinical SPECT/CT imaging and biodistribution of the mercury-197m/g theranostic pair with [^197m/gHg]HgCl2 and a [^197m/gHg]Hg-tetrathiol complex as a platform for radiopharmaceutical development” (EJNMMI Radiopharmacy and Chemistry, 2025).
